Data from patent publication US20250249110A1, “ANTIMICROBIAL PEPTIDE DERIVATIVE AND USE THEREOF” (SICHUAN UNIVERSITY, priority 2016, published 2025).
Where a SMILES comes first, the peptide text is derived from it. The star is where a group is joined. Succinyl(4-O-cholesteryl) = CC(C)CCC[C@@H](C)[C@H]1CC[C@H]2[C@@H]3CC=C4C[C@@H](OC(=O)CCC(=O)*)CC[C@]4(C)[C@H]3CC[C@]12C

Legend:
[1] = tested on: Staphylococcus aureus 33591; test: Intra-abdominally infected mouse model; assay type: in vivo; conditions: intravenous administration
Description: The anti-infection activity of DP7-C is determined by the intra-abdominally infected models. […]
The experimental steps are as follows: • (1) Activate Staphylococcus aureus 33591 with MHB the day before the experiment, wash the activated strains twice with normal saline on the day of the experiment, and determine the concentration of bacterial liquid for later use. • (2) To establish an abdominally infected mouse model, intraperitoneally inject the bacterial solution of 1.5×10^8 cfu/0.5 mL into each mouse. • (3) Intravenously inject the drug by group after one hour of infection, 0.1 mL/mouse. • (4) 24 h later, intraperitoneally inject 5 mL of normal saline into the mouse, gently massage the abdomen, kill the mouse and disinfect with 75% alcohol. After 5 min, scissor the abdominal cavity epithelium, make a small opening in the abdominal cavity, draw ascites as much as possible from the opening with a 1 ml syringe, and then transfer to a sterile EP tube for mixing. • (5) Dilute with normal saline at a dilution of, for example, 10×, 100×, 1000× and 10000×; take three bacterial solutions with suitable concentrations, 20 μL each, coat the MHA plate and incubate in a bacteria incubator overnight. • (6) Select a plate with 20-200 colonies and convert and calculate the amount of bacteria per milliliter in 5 milliliters of ascites.

mouse PBMC = test: Immune-related cytokine expression by Q-PCR after PBMC stimulation; assay type: cell-based
Description: In order to determine the changes of cytokines in mouse PBMC after DP7-C stimulation, the isolated mouse PBMC is diluted to 1×10^6 cells/mL and added to a 6-well plate at 2 ml/well, in which the stimulation concentration of DP7-C is 200 μg/ml and the stimulation time is 4 h. After stimulation, the cells are collected and stored in a −80° C. refrigerator. Meanwhile, in order to verify whether DP7-C can reverse LPS-induced inflammatory reaction, an experiment is set up to stimulate PBMC together with LPS: PBMC is diluted to 1×10^6 cells/ml and added to a 6-well plate at 2 mL/well in which the stimulation concentration of DP7-C is 200 μg/mL; after 1 h, stimulated by LPS for 4 h, and cells are collected and stored in −80° C. refrigerator. After all samples are collected, the following steps are performed, including centrifugation, washing, total RNA extraction, reverse transcription and real-time quantitative PCR.

NY-ESO-1+B16 tumor cells = test: NY-ESO-1 vaccine, preventive and therapeutic NY-ESO-1+ B16 tumor models; assay type: in vivo, mouse; conditions: both preventive and therapeutic model; NY-ESO-1 protein antigen
Description: The specific steps are as follows: • (1) Vaccine preparation
Incubate 20 μg of CpG and 40 μg of DP7-C at 37° C. for 15 min, add 5 μg of NY-ESO-1 protein, and replenish to a volume of 100 μl with sterile PBS. • (2) Grouping and dosage regimen
In this study, animal experiments are divided into […]: NS, CpG, DP7-C and CpG/DP7-C, 10 mice for each group, and the dosage of each mouse is as follows: • (1) NS group: 100 μl of PBS; • (2) CpG group: 5 μg of NY-ESO-1 protein+20 μg of CpG; • (3) DP7-C group: 5 μg of NY-ESO-1 protein+40 μg of DP7-C; • (4) CpG/DP7-C group: 5 μg of NY-ESO-1 protein+20 μg of CpG+40 μg DP7-C;
The total dosage of each mouse is 100 μl; if the dosage is less than 100 μl, sterile PBS may be added to reach 100 μl. • (3) Preventive immunity tumor model: perform subcutaneous immunotherapy at multiple sites on weeks 0, 2 and 4, and detect total antibody titers before inoculate tumor on week 5. Subcutaneously inoculate the tumor cells NY-ESO-1+B16: […] at the back of each mouse. After the tumor grows out, measure it at intervals of 3 days. Calculation formula of tumor volume: 0.52×length×width^2. Therapeutic immune tumor model: subcutaneously inoculate 2×10^5 of NY-ESO-1^+B16 tumor cells at the back of each mouse on day 0, and immunize on day 5 (once a week, for 3 consecutive times). Measure at intervals of 3 days and observe the survival time after the tumor grows out.

B16 mouse melanoma cells = test: FAM-siRNA transfection efficiency in vitro, B16; assay type: cell-based; conditions: FAM-siRNA 1 μg, flow cytometry
Description: In 24 h before transfection, the C26 mouse colon cancer cells or B16 mouse melanoma cells are laid in a 6-well plate with a density of 5×10^4 cells per well, and 2 ml of DMEM medium containing 20% FBS is added to each well. FAM-modified no-sense siRNA (FAM-siRNA) is used as a reporter gene to detect transfection efficiency, while PEI25K and Lipofectamin2000 are used as positive controls. During transfection, the medium is firstly replaced with 1 ml of serum-free DMEM medium. Subsequently, the gene transfection complexes mixed at different proportions are added to each well, and each complex contains 1 μg of FAM-siRNA. Among them, the ratio of siRNA/DP7-C, siRNA/PEI25K and siRNA/Lipofectamin2000 is 1:5, 1:2 and 1:2 respectively. After the medium is incubated at 37° C. for 4 h, it is replaced by DMEM medium supplemented with 20% FBS and sequentially incubated. After 24 h, the transfection is observed under a microscope and photographed. All cells in the wells including floating and adherent cells are collected, washed twice with precooled PBS, and the total fluorescence intensity of each group is counted by flow cytometer (EPICS Elite ESP, USA).

[2] = tested on: C26 mouse colon cancer peritoneal metastasis; test: C26 mouse colon cancer peritoneal metastasis model; assay type: in vivo
Description: In order to further characterize the application potential of DP7-C micelles in tumor therapy, we established a C26 mouse colon cancer peritoneal metastasis model and used DP7-C to transmit anti-VEGF siRNA therapeutic genes for therapeutic research. • (1) Establishment of abdominal metastasis model: on day 0, female BALB/c mice aged 6-8 weeks are intraperitoneally injected with 0.1 ml of cell suspension (containing about 1×10^5 C26 cells). • (2) On day 3, mice are randomly divided into 4 groups, 8 mice for each group, and are labeled. • (3) Four groups of mice are intraperitoneally injected with 10 doses of normal saline (blank control group), blank DP7-C micelle (17.5 μg), DP7-C/no-sense control siRNA (Scramble siRNA) complex (17.5 μg/3.5 μg) or DP7-C/VEGF siRNA complex (17.5 μg/3.5 μg) respectively. • (4) On day 20, when the mice in the control group are already very weak, all the mice are killed by cervical dislocation; the tumor tissues in the abdominal cavity as well as the heart, liver, spleen, lung and kidney tissues are immediately collected, weighed and analyzed. The ascites of each group of mice is also collected and measured, and CD31 immunohistochemical staining is performed on tumor tissues of each experimental group. The collected heart, liver, spleen, lung and kidney tissues are analyzed by HE staining.

[3] = intraperitoneal injection, 10 doses, day 20

## CC[C@H](C)[C@H](NC(=O)[C@H](CCCNC(=N)N)NC(=O)[C@H](Cc1c[nH]c2ccccc12)NC(=O)[C@H](CCC(N)=O)NC(=O)[C@@H](NC(=O)CCC(=O)O[C@H]1CC[C@@]2(C)C(=CC[C@H]3[C@@H]4CC[C@H]([C@H](C)CCCC(C)C)[C@@]4(C)CC[C@@H]32)C1)C(C)C)C(=O)N[C@@H](CCCNC(=N)N)C(=O)N[C@H](C(=O)N[C@@H](C)C(=O)N[C@H](C(=O)N[C@H](C(=O)N[C@@H](CCCNC(=N)N)C(=O)N[C@@H](CCCCN)C(N)=O)[C@@H](C)CC)C(C)C)C(C)C [DP7-C, Chol-suc-VQWRIRVAVIRK-NH2] ({Succinyl(4-O-cholesteryl)}-VQWRIRVAVIRK-NH2)
[1]; DP7-C 1 mg/kg, VAN 20 mg/kg, vs NS group, p<0.01
  average colony forming unit (CFU) of Staphylococcus aureus: significantly lower than those in NS group
[1]; no statistical difference
  antibacterial effect compared with positive drug group: basically the same as that of the positive drug group
Mouse PBMC; 200 μg/mL DP7-C together with LPS
  gene expression of IL-1β, MCP-1 and TNF-α: significantly reduced
Mouse PBMC; 200 μg/ml, 4 h
  expression of IL-1, IL-6, MCP-1, M-CSF, TNF-α and other cytokines related to immune activation: greatly increased
NY-ESO-1+B16 tumor cells
  tumor growth: inhibit tumor growth to some extent
B16 mouse melanoma cells
  transfection efficiency: 53.3 ± 4.0%
[2]; heart, liver, spleen, lung, kidney
  HE staining of major organ tissues: no significant pathological changes
[2]; [3]
  average tumor weight: 7.94 ± 0.53 g
  volume of ascites (printed as average tumor weight): 1.17 ± 0.51 mL
